According to US20070129334A1, “Orally Active Purine-Based Inhibitors of Heat Shock Protein 90” (CONFORMA THERAPEUTICS CORPORATION, priority 2001, published 2007):
pIC50: −log10 of the molar value. Like-named read-outs stand apart in the source and are kept apart here.

What was measured:
[1] = system: Hsp90 clients in N87 stomach cancer xenograft tumors; test: Pharmacodynamic effect in N87 xenograft model; format: in vivo, mice
Procedure: The pharmacodynamic effect of amine 126 was examined in a N87 xenograft model (FIG. 1b), N87 being a stomach cancer cell line expressing high HER-2 levels. Mice were administered 126.H3PO4 orally at two different regimens (2×100 or 2×200 mg/kg/day) for three days, and were sacrificed 24 h after the last dosing.

[2] = system: N87 xenograft model of human stomach cancer; conditions: for tumor growth inhibition: N87
[3] = system: MCF-7 breast cancer cells; test: MTS cell growth inhibition assay; format: cell-based, human; conditions: MCF-7 cells, 5 days; SEM 9-21% of the mean
[4] = Pharmacokinetics in Balb/C mice (IV 10 mg/kg, PO 100 mg/kg)
[5] = system: HER-2 receptor (Hsp90 client) in MCF-7 cells; test: HER-2 degradation assay (MCF-7 cells, 16 h, phycoerythrin-labeled antibody and flow cytometry); format: cell-based, human
[6] = Solubility in simulated gastric fluid, simulated intestinal fluid and serum; format: physicochemical; conditions: for Serum (PH 7.4): solubility in serum; for Gastric (PH 2.0): solubility in simulated gastric fluid; for Intestinal (PH 6.5): solubility in simulated intestinal fluid
in vivo = conditions: mouse, po, 100 mg/kg
[7] = mouse, in vivo, po, 100 mg/kg
[8] = Mouse pharmacokinetics after oral administration at 100 mg/kg
MCF-7 xenograft tumors = conditions: cited from earlier work
[9] = oral 2×100 mg/kg/day for three days

With COc1ccc(I)c(Sc2nc3c(N)ncnc3n2CCCNC(C)C)c1.O=P(O)(O)O [Compound 126, 8-(2-Iodo-5-methoxy-phenylsulfanyl)-9-(3-isopropylamino-propyl)-9H-purin-6-ylamine H3PO4 salt] the “degradation of HER-2, pHER-2, pRaf in tumor” value [1, 9] was “little or no degradation”, the “degrading Akt, pAkt, Raf-1, pMEK, cdk6, pRb in tumor” value [1, 9] was “still effective” and the “levels of HER-2 and pHER-2 in tumor” value ([1]; oral 2×200 mg/kg/day for three days) was “decreased only partially”. The “degradation of Akt, pAkt, Raf-1, pRaf, cdk6, pRb in tumor” value ([1]; oral 2×200 mg/kg/day for three days, 24 h after last dosing) was “to levels comparable to those obtained with 17-AAG”, the tumor growth inhibition ([2]; oral 200 mg/kg/day, once daily, 5 days/week) was “Tumor growth inhibition was observed” and the “mortality and weight loss” value ([2]; oral 200 mg/kg/day, once daily, 5 days/week, mice) was “neither mortality nor weight loss was observed”. The pIC50 [3] was 6.22, the “IV Parameters T1/2” value ([4]; IV 10 mg/kg, H3PO4 salts) was 4.2 h and the “IV Parameters VSS” value ([4]; IV 10 mg/kg, H3PO4 salts) was 22 L/kg. The “IV Parameters Cl” value ([4]; IV 10 mg/kg, H3PO4 salts in phosphatidylcholine/water dispersion) was 62 mL/min/kg, the “PO Parameters T1/2” value ([4]; PO 100 mg/kg, H3PO4 salts) was 1.5 h and the “PO Parameters Tmax” value ([4]; PO 100 mg/kg, H3PO4 salts) was 0.5 h. For the same compound, the “PO Parameters Cmax” value ([4]; PO 100 mg/kg, H3PO4 salts, plasma) was 4700 ng/mL, the “PO Parameters AUC” value ([4]; PO 100 mg/kg, over 4 h, H3PO4 salts) was 450 µg·min/mL and the pIC50 ([5]; MCF-7 cells, 16 h, SEM 6-11% of the mean, read-out: HER-2 IC50) was 6.74.
In the case of CC(=O)OCCCn1c(Sc2nc3cccc(Cl)c3s2)nc2c(N)ncnc21 [Compound 242], the “Serum (PH 7.4)” value [6] was 9 µg/mL, the “Gastric (PH 2.0)” value [6] was 220 µg/mL and the “Intestinal (PH 6.5)” value [6] was 16 µg/mL. The AUC (in vivo) was 1040 ng·h/mL, the “plasma concentrations (in words)” value [7] was “significantly lower than 264” and the pIC50 ([5]; Homo sapiens, MCF7, read-out: HER-2) was 7.05.
In the case of Nc1ncnc2c1nc(Sc1nc3cccc(Cl)c3s1)n2CCNC1CC1 [Compound 264], the tumor growth inhibition ([2]; oral 200 mg/kg 5 days/week, day 39, vs control group) was 56%, the “Serum (PH 7.4)” value [6] was 59 µg/mL and the “Gastric (PH 2.0)” value [6] was 245 µg/mL. The “Intestinal (PH 6.5)” value [6] was 21 µg/mL, the “oral bioavailability (in words)” value [8] was “orally bioavailable” and the C-max ([8]; PO 100 mg/kg) was 4513 ng/mL. For the same compound, the “Mouse PK PO AUC at 100 mg/kg PO” value ([8]; PO 100 mg/kg) was 430511 ng·min/mL, the “Mouse PK PO Cmax at 100 mg/kg” value ([8]; PO 100 mg/kg) was 4479 ng/mL and the “time of C-max after dosing” value ([8]; PO 100 mg/kg) was 30 min. For the same compound, the half life ([8]; PO 100 mg/kg, estimated) was ~1.5 h and the IC50 ([5]; 9-N-alkyl position SAR, head prints no unit, nM, read-out: HER-2) was 110 nM.
CCCCn1c(Cc2cc(OC)ccc2Cl)nc2c(N)ncnc21 [Compound 311, 9-Butyl-8-(2-chloro-5-methoxy-benzyl)-9H-purin-6-ylamine] gave a melting point of 138 to 139 °C and a pIC50 ([5]; Homo sapiens, MCF7, MCF-7 cells, 16 h, average of at least three observations, read-out: HER-2 IC50) of 4.70.
For C#CCCCn1c(Cc2cc(OC)c(OC)c(OC)c2Cl)nc2c(N)nc(F)nc21 [PU24FCl], the “aqueous solubility (in words)” value (Water solubility) is given as “too insoluble to be effectively formulated and delivered orally”, the pIC50 [3] is given as 5.92 and the tumor growth (MCF-7 xenograft tumors; intraperitoneally 200 mg/kg) is given as “significantly repressed tumor growth”. For the same compound, the “pharmacodynamic response in tumors” value (MCF-7 xenograft tumors; intraperitoneally 100-300 mg/kg, DMSO/EtOH/phosphate-buffered saline 1:1:1) was “down-regulation of HER-2 and Raf-1”.
